Assay results published in patent US9109004B2, “Progesterone receptor antagonists” (Bayer Intellectual Property GmbH, priority 2010, dated 2015).

How the values were obtained:
[1] = molecular target: T1, human progesterone receptor B (Homo sapiens, UniProt P06401); experiment: Progesterone-receptor-antagonistic action in stably transfected SK-N-MC cells, MTV-LUC reporter (PR-B); format: cell-based; conditions: antagonistic potency vs 0.1 nmol/l promegestone, 24 hours, luciferase
T1 construct: expressed in transfected cells; host or cells: SK-N-MC human neuroblastoma cells, stably transfected
T1 sequence (P06401 1-933): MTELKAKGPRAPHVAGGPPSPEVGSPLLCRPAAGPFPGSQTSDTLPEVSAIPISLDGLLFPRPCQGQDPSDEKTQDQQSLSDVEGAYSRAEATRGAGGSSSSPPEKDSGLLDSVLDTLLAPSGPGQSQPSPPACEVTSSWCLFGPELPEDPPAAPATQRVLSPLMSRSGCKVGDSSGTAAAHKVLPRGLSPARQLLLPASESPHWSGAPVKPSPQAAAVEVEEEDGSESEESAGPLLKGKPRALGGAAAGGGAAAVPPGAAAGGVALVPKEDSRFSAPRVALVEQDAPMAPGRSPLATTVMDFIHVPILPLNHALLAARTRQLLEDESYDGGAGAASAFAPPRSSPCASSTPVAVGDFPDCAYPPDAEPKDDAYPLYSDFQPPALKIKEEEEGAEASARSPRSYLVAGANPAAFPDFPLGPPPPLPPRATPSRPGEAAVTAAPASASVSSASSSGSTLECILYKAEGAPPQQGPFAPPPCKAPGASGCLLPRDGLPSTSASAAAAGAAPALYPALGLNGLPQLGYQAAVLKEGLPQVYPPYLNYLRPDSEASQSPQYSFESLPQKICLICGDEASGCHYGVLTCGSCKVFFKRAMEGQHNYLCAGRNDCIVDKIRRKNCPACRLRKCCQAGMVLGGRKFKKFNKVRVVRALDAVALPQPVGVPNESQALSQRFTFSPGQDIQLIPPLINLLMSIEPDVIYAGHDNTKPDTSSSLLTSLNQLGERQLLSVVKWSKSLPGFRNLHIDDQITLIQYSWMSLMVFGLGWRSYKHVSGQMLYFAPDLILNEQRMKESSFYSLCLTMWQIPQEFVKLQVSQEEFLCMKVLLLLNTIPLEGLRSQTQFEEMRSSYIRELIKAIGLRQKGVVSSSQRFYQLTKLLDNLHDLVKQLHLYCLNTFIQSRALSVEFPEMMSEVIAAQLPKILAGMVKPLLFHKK
Method: Progesterone-Receptor-Antagonistic Action in Stable Transfectants of Human Neuroblastoma Cells (SK-N-MC Cells) with the Human Progesterone A or Progesterone B Receptor and an MTV-LUC Reporter Construct
SK-N-MC cells (human neuroblastoma cells) that have been stably transfected with plasmids that express the human progesterone receptor B (pRChPR-B-neo) or the human progesterone receptor A (pRChPR-A-neo) and a reporter construct (pMMTV-LUC), were incubated for 24 hours either in the absence (negative control) or in the presence of increasing amounts of the particular test compound (0.01 nmol/l, 0.1 nmol/l, 1 nmol/l, 10 nmol/l, 100 nmol/l and 1 μmol/l), to determine the agonistic efficacy. As positive control of reporter gene induction, the cells were treated with the synthetic gestagen promegestone (0.01 nmol/l, 0.1 nmol/l, 1 nmol/l, 10 nmol/l, 100 nmol/l and 1 μmol/l). For determination of the antagonistic activity, the cells were treated with 0.1 nmol/l promegestone and additionally with increasing amounts of the particular test compound (0.01 nmol/l, 0.1 nmol/l, 1 nmol/l, 10 nmol/l, 100 nmol/l and 1 μmol/l). The activity of the reporter gene LUC (LUC=luciferase) was determined in the cell lysates and was measured as RLU (relative light units). All measured values are given as % efficacy and as EC50 or IC50 concentrations.

pregnant rats = experiment: Test as abortifacient in female rats (termination of early pregnancy); format: in vivo, rat; conditions: d5-d7 p.c., autopsy d9 p.c.
Method: Test as Abortifacient in Female Rats
The antagonistic action of the compounds according to the invention was tested on pregnant rats (6 rats per group) on day 5 to 7 post coitum in conventional conditions of husbandry and feeding.
After successful mating, the pregnant animals (presence of sperm in the vaginal smear on day 1 of pregnancy=d1 p.c.) were randomized and were divided into the treatment group and the control group. The animals then received, subcutaneously or orally, in each case 0.15; 0.5; 1.5 or 5 mg/kg of the test compound or 1.0 ml/kg of vehicle (benzyl benzoate/castor oil: 1+4 [v/v]) daily from day 5 to day 7 (d5-d7 p.c.).
Autopsy was carried out on day 9 (d9 p.c.). For characterization of progesterone-receptor-antagonistic action, the uterus was investigated for the presence of nidation sites. Complete absence, but also the presence of pathological, haemorrhagic or otherwise abnormal nidation sites on day 9 (d9 p.c.) was assessed as abortion.

[2] = Metabolic stability in human liver microsomes (HLM); format: in vitro ADME; conditions: from HLM half-life, well-stirred model, phase I reactions; 1 μM test compound
Method: Metabolic stability of 4-[(11β,17β)-17-hydroxy-3-oxo-17-(pentafluoro-ethyl)estra-4,9-dien-11-yl]benzamide and 4′-[(11β,17β)-17-hydroxy-3-oxo-17-(pentafluoro-ethyl)estra-4,9-dien-11-yl]biphenyl-4-carboxamide in human liver microsomes (HLM) Isolated human liver microsomes (HLM) were used for assessing the metabolic stability of compounds of general formula I. The incubations were carried out with 2.4 ml HLM solution (0.5 mg/ml protein content), 30 μl of the test compound (final concentration 1 μM) and 0.6 ml of the cofactor mixture (=NADPH-generating system of 3 IU glucose-6-phosphate dehydrogenase, 14.6 mg glucose-6-phosphate, 1.2 mg NADP) at 37° C. in 100 mM phosphate buffer at pH 7.4. Samples are taken at 6 time points (2-60 min), precipitated with an equal volume of methanol, and the recovery of the test substances used in the supernatant is determined by LC-MS/MS analysis. The intrinsic clearance of the substance in the liver microsome assay can be calculated from the value found for the half-life of substance breakdown. Using this, on the basis of various physiological characteristics according to the well-stirred model it is possible to predict a (metabolic) in-vivo clearance with respect to phase I reactions.

## C[C@]12C[C@H](c3ccc(C(N)=O)cc3)C3=C4CCC(=O)C=C4CC[C@H]3[C@@H]1CC[C@@]2(O)C(F)(F)C(F)(F)F [Example 1, 4-[(11β,17β)-17-Hydroxy-3-oxo-17-(pentafluoroethyl)estra-4,9-dien-11-yl]benzamide]
[1]
  IC50: 0.9 nM
Pregnant rats; daily dose 0.5 mg/kg p.o.
  Abortion rate: 0%
Pregnant rats; daily dose 1.5 mg/kg p.o.
  Abortion rate: 50%
Pregnant rats; daily dose 5.0 mg/kg p.o.
  Abortion rate: 100%
[2]
  (metabolic) in-vivo clearance in humans predicted: 0.33 L/h/kg
